{"source": "patent US20240002846A1", "about": "“COMPOSITIONS AND METHODS FOR THE DIAGNOSIS AND TREATMENT OF ITCH” (Duke University, priority 2020, published 2024)", "key": {"[1]": {"test_system": "mice", "test": "Scratching behavior after i.d. injection into dorsal neck skin", "format": "in vivo, mouse", "settings": "for scratching behavior (itch) induced by i.d. injection of lipid: i.d. into dorsal neck, LPA 18:1 500 μg, LPC 50-500 μg, LPC species at the same dose", "description": "(§1) Behavioral assessment. Mice were shaved at the dorsal neck 1 d before experiments. Mice were allowed to acclimate to a Plexiglas chamber for at least 30 min before testing and received intradermal (i.d.) injection of 50 μL of LPA 18:1, LPC, LPC 14:0, LPC 16:0, LPC 18:0, LPC 18:1, miR-146a mimic, miR-146a scramble, ATP or vehicles through a 30-gauge needle (Becton Dickinson, Franklin Lakes, NJ) into the neck skin. After injections, mice were immediately placed back to the chamber, and the scratching behavior was recorded by a Panasonic video camera for 30 min. Hind limb scratching behavior directed toward the injected area at the nape of neck was observed. One scratch is defined as a lifting of the hind limb toward the injection site and then a replacing of the limb back to the floor, regardless of how many scratching strokes take place between those two movements. Behavioral analysis was conducted by observers blinded to genotype."}, "[2]": {"test_system": "mouse keratinocytes", "test": "Ca2+ imaging in cultured mouse keratinocytes", "format": "cell-based", "settings": "for LPA (18:1) induced Ca2+ influx: up to 30 μM; for effect on LPC 18:1 (10 μM)-induced Ca2+ influx (GPCR-signaling inhibitors): inhibitor 10 μM", "description": "Basal keratinocytes were separated from the cornified sheets by filtration through a […] cell strainer. Keratinocytes were plated on collagen I-coated dishes or glass coverslips and grown in EME media (Gibco, Gaithersburg, MD) containing 8% chelex (Bio-rad, Hercules, CA)-treated FBS with the final Ca^2+ adjusted to 0.05 mM, bovine pituitary extract (50 μg/mL), epidermal growth factor (5 ng/mL), and lx antibiotics/antimycotics (Gibco, Gaithersburg, MD) in a humidified incubator with 5% CO2 at 37° C. for 5-7 days until use. To knockdown Trpv4 in isolated keratinocytes from newborn keratinocyte-Trpv4 cKO mice, cells were treated with 4-OH tamoxifen at 500 nM for 72 h.\n(§2) In vitro and ex vivo Ca^2+ imaging. […] Ca^2+ imaging of cultured cells in response to chemicals was conducted after loading with 5 μM Fura2-AM (Invitrogen, Waltham, MA) for 45 min after a ratiometric Ca^2+-imaging protocol with 340/380-nm blue light for dual excitation. Ratios of emissions were acquired at 0.5 Hz. ΔR/R0 was determined as the fraction of the increase of a given ratio over baseline ratio divided by baseline ratio. […] Control cells received vehicles."}, "[3]": {"test_system": "human keratinocytes", "test": "Ca2+ imaging in cultured human keratinocytes", "format": "cell-based", "settings": "for LPA (18:1) induced Ca2+ influx: up to 30 μM; for effect on LPC 18:1 (10 μM)-induced Ca2+ influx (GPCR-signaling inhibitors): inhibitor 10 μM", "description": "In brief, surgically discarded foreskin samples, obtained from Duke Children's Hospital in accordance to institutionally approved IRB protocol, were incubated with Dispase (Gibco, Gaithersburg, MD, 4 U/mL) for 12-16 h at 4° C. followed by 0.05% trypsin (Gibco, Gaithersburg, MD) for 10-20 min at 37° C. Cells were maintained in keratinocyte serum-free media (Invitrogen, Waltham, MA) with 5% CO2 at 37° C. and used at passage 2-3.\nas §2"}, "[4]": {"molecular_target": "T1, hTRPV4 (Homo sapiens, UniProt Q9HBA0)", "T1 construct": "expressed in transfected cells; host or cells: HEK293 (ATCC CRL-1573)", "T1 sequence (Q9HBA0 whole entry)": "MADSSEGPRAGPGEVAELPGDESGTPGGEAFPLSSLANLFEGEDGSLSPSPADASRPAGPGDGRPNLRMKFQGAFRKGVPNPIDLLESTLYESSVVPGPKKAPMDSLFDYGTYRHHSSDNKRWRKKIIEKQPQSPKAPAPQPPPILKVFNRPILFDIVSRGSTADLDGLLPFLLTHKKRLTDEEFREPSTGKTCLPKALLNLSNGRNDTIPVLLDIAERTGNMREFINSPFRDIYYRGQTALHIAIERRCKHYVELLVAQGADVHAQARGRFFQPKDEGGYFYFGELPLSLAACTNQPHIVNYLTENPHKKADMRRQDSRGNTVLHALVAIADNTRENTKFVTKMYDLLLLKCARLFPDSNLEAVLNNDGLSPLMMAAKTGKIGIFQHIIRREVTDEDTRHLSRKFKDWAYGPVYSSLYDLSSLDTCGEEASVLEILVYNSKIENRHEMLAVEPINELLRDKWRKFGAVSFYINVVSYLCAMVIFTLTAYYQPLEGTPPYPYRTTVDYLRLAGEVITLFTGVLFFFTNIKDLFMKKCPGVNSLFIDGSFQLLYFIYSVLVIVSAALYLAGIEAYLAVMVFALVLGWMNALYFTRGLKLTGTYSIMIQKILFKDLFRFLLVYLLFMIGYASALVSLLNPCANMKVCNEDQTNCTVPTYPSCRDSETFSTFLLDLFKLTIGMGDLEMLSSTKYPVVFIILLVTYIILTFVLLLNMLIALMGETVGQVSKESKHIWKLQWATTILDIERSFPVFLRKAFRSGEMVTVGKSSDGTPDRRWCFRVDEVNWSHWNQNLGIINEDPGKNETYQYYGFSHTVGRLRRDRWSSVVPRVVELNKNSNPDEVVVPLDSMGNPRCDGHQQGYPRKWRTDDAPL", "test": "Ca2+ imaging in HEK cells transfected with hTRPV4", "format": "cell-based", "settings": "inhibitor 10 μM", "description": "Cell culture and transfection. HEK293 cells (ATCC® CRL-1573) were cultured on poly-D-lysine coated coverslips in 24-well plate containing DMEM media with high-Glucose (Gibco, Gaithersburg, MD) supplemented with 10% fetal bovine serum (FBS, HyClone Laboratories, Logan, UT) and 100 U/mL of penicillin/streptomycin (Gibco, Gaithersburg, MD). Cell cultures were maintained with 5% of CO2 in a humidified incubator at 37° C. HEK cells were transfected with rat or human wild type or mutant TRPV4 channels with EGFP or YFP coupled to their C-termini (1.5 μg of plasmid for excised patch clamp and Ca^2+ imaging and 200 ng for single-channel experiments). The jetPEI™ Polyplus transfection reagent (Polyplus Transfection, New York, NY) for electrophysiology or Lipofectamine™ 2000 Reagent (Invitrogen, Waltham, MA) for Ca^2+ imaging were used for transfections per manufacturer's instructions as previously described (Chen et al. Pain 2014, 155, 2662-2672; Morales-Lazaro et al. Nat. Commun. 2016, 7, 13092). To investigate whether miR-146a can directly activate TRPV1 channels or indirectly via TLRs, HEK293 cells were transfected with rTRPV1 or co-transfected rTRPV1 with rTLR7, rTLR2, or rTLR6 (Addgene, Watertown, MA) for Ca^2+ imaging assay. Control cells were transfected with GFP or YFP.\nIn vitro and ex vivo Ca^2+ imaging. Routine procedures were followed for Ca^2+ imaging in cultured DRG sensory neurons, epidermal keratinocytes, and HEK cells (Chen et al. J. Biol. Chem. 2016, 291, 10252-10262; Chen et al. Pain 2014, 155, 2662-2672). Ca^2+ imaging of cultured cells in response to chemicals was conducted after loading with 5 μM Fura2-AM (Invitrogen, Waltham, MA) for 45 min after a ratiometric Ca^2+-imaging protocol with 340/380-nm blue light for dual excitation. Ratios of emissions were acquired at 0.5 Hz. ΔR/R0 was determined as the fraction of the increase of a given ratio over baseline ratio divided by baseline ratio. To investigate the effects of the TRPV4 inhibitors GSK205 or HC067047, the PLC inhibitor U73122, the Gag G Protein inhibitor BIM46187, the Gβγ G protein inhibitor Gallein, the TRPV1 inhibitor SB366791, the TRPA1 inhibitor HC030031, and IPP for TRPV3, on LPA-induced Ca^2+ influx, LPC-induced Ca^2+ influx, or miR-146α-induced Ca^2+ influx, cells were incubated with the inhibitors for 15 min before stimulation. Control cells received vehicles."}, "[5]": {"test_system": "mice", "test": "Effect of inhibitor pretreatment on LPA-, LPC- or miR-146a-induced scratching behavior", "format": "in vivo, mouse", "settings": "for effect on scratching evoked by i.d. miR-146a (4 nmol) (TLR inhibitors): i.p. 10 mg/kg", "description": "as §1, with “Mice were allowed to acclimate to a Plexiglas chamber for at least 30 min before testing and received intradermal (i.d.) injection of 50 μL of LPA 18:1, LPC, LPC 14:0, LPC 16:0, LPC 18:0, LPC 18:1, miR-146a mimic, miR-146a scramble, ATP or vehicles through a 30-gauge needle (Becton Dickinson, Franklin Lakes, NJ) into the neck skin.” left out\nControl animals received the same volume of vehicles.\nLumbar puncture was made with a 30G-needle and drugs at 5 μL of volume were delivered. Scratching behavior assay was started approximately 2 weeks after resiniferatoxin treatment."}}, "note": "Entries after “also recorded” stand apart in the source; their conditions may differ.", "data": [{"molecule": "LPC 14:0", "values": [{"measurement": "scratching behavior (itch) induced by i.d. injection of lipid", "setting": "[1]", "value": "caused robust itch"}]}, {"molecule": "lysophosphatidic acid [LPA (18:1)]", "values": [{"measurement": "scratch bouts", "setting": "[1]; i.d. 500 μg into dorsal neck, WT mice", "value": 58, "unit": "scratch bouts in 30 min"}, {"measurement": "scratching behavior (itch) induced by i.d. injection of lipid", "setting": "[1]", "value": "elicited moderate scratching; also recorded: induced itch"}, {"measurement": "LPA (18:1) induced Ca2+ influx", "setting": "[2]", "value": "not dose-dependent and was less robust than that of LPC"}, {"measurement": "LPA (18:1) induced Ca2+ influx", "setting": "[2]; listed as LPA", "value": "much reduced"}, {"measurement": "LPA (18:1) induced Ca2+ influx", "setting": "[3]", "value": "not dose-dependent and was less robust than that of LPC"}, {"measurement": "LPA (18:1) induced Ca2+ influx", "setting": "[3]; listed as LPA", "value": "much reduced"}]}, {"molecule": "O=C1OC2(c3ccccc31)c1ccc(O)c(O)c1Oc1c2ccc(O)c1O", "note": "[Gallein]", "values": [{"measurement": "effect on LPC 18:1 (10 μM)-induced Ca2+ influx (GPCR-signaling inhibitors)", "setting": "[2]", "value": "no inhibitory effects; also recorded: not significantly altered"}, {"measurement": "effect on LPC 18:1 (10 μM)-induced Ca2+ influx (GPCR-signaling inhibitors)", "setting": "[3]", "value": "no inhibitory effects; also recorded: not significantly altered"}, {"measurement": "effect on LPC 18:1 (10 μM)-induced Ca2+ influx (GPCR-signaling inhibitors)", "setting": "[4]", "value": "no inhibitory effects; also recorded: not significantly altered"}]}, {"molecule": "Nc1ncnc2c1ncn2[C@@H]1O[C@H](COP(=O)(O)OP(=O)(O)OP(=O)(O)O)[C@@H](O)[C@H]1O", "note": "[ATP, adenosine triphosphate]", "values": [{"measurement": "scratching behavior induced by i.d. ATP", "setting": "[1]; i.d. 10 nmol or 100 nmol vs normal saline", "value": "not to have any pruritogenic effects; also recorded: did not elicit significant scratching behaviors"}]}, {"molecule": "c1cc(-c2nc3ccc(OCCCN4CCCC4)cc3o2)ccc1OCCCN1CCCC1", "note": "[E6446]", "values": [{"measurement": "effect on scratching evoked by i.d. miR-146a (4 nmol) (TLR inhibitors)", "setting": "[5]", "value": "not significantly altered"}]}, {"molecule": "O=C(O)CC1CC(c2ccccc2)=NO1", "note": "(centres unmarked) [GIT27]", "values": [{"measurement": "effect on scratching evoked by i.d. miR-146a (4 nmol) (TLR inhibitors)", "setting": "[5]", "value": "not significantly altered"}]}, {"molecule": "N[C@@H](CSSC[C@H](N)C(=O)N1CCn2cc(-c3ccccc3)nc2[C@@H]1CC1CCCCC1)C(=O)N1CCn2cc(-c3ccccc3)nc2[C@@H]1CC1CCCCC1", "note": "[BIM46187]", "values": [{"measurement": "effect on LPC 18:1 (10 μM)-induced Ca2+ influx (GPCR-signaling inhibitors)", "setting": "[2]", "value": "not significantly altered"}, {"measurement": "effect on LPC 18:1 (10 μM)-induced Ca2+ influx (GPCR-signaling inhibitors)", "setting": "[2]; listed as BIM-46187", "value": "no inhibitory effects"}, {"measurement": "effect on LPC 18:1 (10 μM)-induced Ca2+ influx (GPCR-signaling inhibitors)", "setting": "[3]", "value": "not significantly altered"}, {"measurement": "effect on LPC 18:1 (10 μM)-induced Ca2+ influx (GPCR-signaling inhibitors)", "setting": "[3]; listed as BIM-46187", "value": "no inhibitory effects"}, {"measurement": "effect on LPC 18:1 (10 μM)-induced Ca2+ influx (GPCR-signaling inhibitors)", "setting": "[4]", "value": "not significantly altered"}, {"measurement": "effect on LPC 18:1 (10 μM)-induced Ca2+ influx (GPCR-signaling inhibitors)", "setting": "[4]; listed as BIM-46187", "value": "no inhibitory effects"}]}, {"molecule": "COc1ccc2c(c1)CC[C@@H]1[C@@H]2CC[C@]2(C)[C@@H](NCCCCCCN3C(=O)C=CC3=O)CC[C@@H]12", "note": "[U73122]", "values": [{"measurement": "effect on LPC 18:1 (10 μM)-induced Ca2+ influx (GPCR-signaling inhibitors)", "setting": "[2]", "value": "no inhibitory effects; also recorded: not significantly altered"}, {"measurement": "effect on LPC 18:1 (10 μM)-induced Ca2+ influx (GPCR-signaling inhibitors)", "setting": "[3]", "value": "no inhibitory effects; also recorded: not significantly altered"}, {"measurement": "effect on LPC 18:1 (10 μM)-induced Ca2+ influx (GPCR-signaling inhibitors)", "setting": "[4]", "value": "no inhibitory effects; also recorded: not significantly altered"}]}, {"molecule": "O=C(CCN1CCN(C(=O)OCc2cc(Cl)cc(Cl)c2)CC1)c1ccc2[nH]c(=O)oc2c1", "note": "[PF8380]", "values": [{"measurement": "effect on LPC-induced itch (autotaxin inhibitor), WT mice", "setting": "[5]; i.p. pretreatment 10 mg/kg, WT mice", "value": "attenuated"}]}]}
